Results on 53 molecules are retold here after patent US7179806B2, “Δ1-pyrrolines used as pesticides” (Bayer Cropscience AG, priority 2000, dated 2007).

The subject of series [1] is larvae of the mustard beetle (Phaedon cochleariae). Put plainly: Phaedon larvae test (cabbage leaves dipped). Format: in vivo. The conditions noted are these: active compound concentration 1000 ppm. The procedure:
(§1) Phaedon Larvae Test To produce a suitable preparation of active compound, 1 part by weight of active compound is mixed with the stated amounts of solvent and emulsifier, and the concentrate is diluted with emulsifier-containing water to the desired concentration. Cabbage leaves (Brassica oleracea) are treated by being dipped into the preparation of active compound of the desired concentration and are populated with larvae of the mustard beetle (Phaedon cochleariae) whilst the leaves are still moist. After the desired period of time, the kill in % is determined. 100% means that all beetle larvae have been killed; 0% means that none of the beetle larvae have been killed.

Series [2] concerns greenhouse red spider mite (tetranychus urticae). Put plainly: Tetranychus test (OP-resistant/dip treatment). The conditions noted are these: active compound concentration 100 ppm, OP-resistant, dip treatment. Format: in vivo. The procedure: Tetranychus Test (OP Resistant/Dip Treatment)
To produce a suitable preparation of active compound, 1 part by weight of active compound is mixed with the stated amounts of solvent and emulsifier, and the concentrate is diluted with emulsifier-containing water to the desired concentration.
Bean plants (Phaseolus vulgaris) which are heavily infested by all stages of the greenhouse red spider mite (tetranychus urticae) are dipped into a preparation of active compound of the desired concentration.
After the desired period of time, the effect in % is determined. 100% means that all spider mites have been killed; 0% means that none of the spider mites have been killed.

The subject of series [3] is Heliothis virescens caterpillars. Description: Heliothis virescens test (soya bean shoots dipped). Format: in vivo. The procedure:
as §1, with “Heliothis Virescens” for “Phaedon Larvae”, “Soya bean shoots (Glycine max)” for “Cabbage leaves (Brassica oleracea)”, “Heliothis virescens caterpillars” for “larvae of the mustard beetle (Phaedon cochleariae)”, “caterpillars” for “beetle larvae”

Series [4] concerns army worm (Spodoptera exigua) caterpillars. Description: Spodoptera exigua test (cabbage leaves dipped). Format: in vivo. The conditions noted are these: active compound concentration 500 ppm. The procedure:
as §1, with “Spodoptera Exigua” for “Phaedon Larvae”, “army worm (Spodoptera exigua) caterpillars” for “larvae of the mustard beetle (Phaedon cochleariae)”, “caterpillars” for “beetle larvae”

In series [5] the test system is army worm (Spodoptera frugiperda) caterpillars. Put plainly: Spodoptera frugiperda test (cabbage leaves dipped). Format: in vivo. The conditions noted are these: 168 h, after 7 d, read-out: Kill rate in % after 7 d; for pest or weed control at 500 ppm: active compound concentration 500 ppm; for pest or weed control at 1000 ppm: active compound concentration 1000 ppm. On the procedure: as §1, with “Spodoptera frugiperda” for “Phaedon Larvae”, “army worm (Spodoptera frugiperda) caterpillars” for “larvae of the mustard beetle (Phaedon cochleariae)”, “caterpillars” for “beetle larvae”

Series [6] is described as follows: log P determination by HPLC (reversed-phase C18, EEC Directive 79/831 Annex V.A8). Format: physicochemical. The conditions noted are these: reversed-phase C18 HPLC column, pH 2.3, pH 2.3, 0.1% aqueous phosphoric acid/acetonitrile gradient, 43° C. An excerpt: Mobile phases for determination in the acidic range: 0.1% aqueous phosphoric acid, acetonitrile; linear gradient from 10% acetonitrile to 90% acetonitrile.

The mark [7] stands for this setting: active compound concentration 40 ppm.
The mark [8] stands for this setting: active compound concentration 500 ppm.

For the molecule `Fc1cccc(F)c1C1=NC(c2ccc(-c3ccc(C(F)(F)F)cn3)cc2)CC1` (centres unmarked) [drawing 271], the “Kill rate in % after 7 d” value in series [1] is 100%.
On to `Fc1cccc(F)c1C1=NC(c2ccc(-c3cncnc3)cc2)CC1` (centres unmarked) [drawing 293], for which the “Kill rate in % after 7 d” value in series [2] is 98%.
As to `Fc1cccc(F)c1C1=NC(c2ccc(-c3ccc(C(F)(F)F)cn3)cc2)CC1` (centres unmarked) [drawing 266], the “Kill rate in % after 7 d” value in series [3] (setting [7]) turned out to be 100%.
As for `Fc1cccc(F)c1C1=NC(c2ccc(-c3ccc(OCC(F)(F)F)nc3)cc2)CC1` (centres unmarked) [drawing 277], the “Kill rate in % after 7 d” value in series [4] was 100%.
Regarding `CCCCN(CCCC)c1ccc(-c2ccc(C3CCC(c4c(F)cccc4F)=N3)cc2)nn1` (centres unmarked) [drawing 287], the pest or weed control at 500 ppm in series [5] was 100%.
As for `CC(C)Sc1ccc(-c2ccc(C3CCC(c4c(F)cccc4F)=N3)cc2)nn1` (centres unmarked) [drawing 297], in series [2], the “Kill rate in % after 7 d” value was 98%.
As for `CC(C)Oc1ncc(-c2ccc(C3CCC(c4c(F)cccc4F)=N3)cc2)cn1` (centres unmarked) [drawing 265], the “Kill rate in % after 7 d” value in series [3] (setting [7]) was determined as 100%.
As for `Fc1cccc(F)c1C1=NC(c2ccc(-c3ccc(OCC(F)(F)F)nc3)cc2)CC1` (centres unmarked) [drawing 267], the “Kill rate in % after 7 d” value in series [3] (setting [8]) is listed as 100%.
Consider `CC1CC(C)CN(c2ncc(-c3ccc(C4CCC(c5c(F)cccc5F)=N4)cc3)cn2)C1` (centres unmarked) [drawing 275], for which, in series [1], the “Kill rate in % after 7 d” value is 100%.
Take `Fc1cccc(F)c1C1=NC(c2ccc(-c3cnc(N4CCOCC4)nc3)cc2)CC1` (centres unmarked) [drawing 298]: the “Kill rate in % after 7 d” value in series [2] is given as 98%.
In the case of `Fc1cccc(F)c1C1=NC(c2ccc(-c3ccc(Cl)cn3)cc2)CC1` (centres unmarked) [drawing 280], in series [5], the pest or weed control at 1000 ppm was determined as 100%.
Take `CC(C)Oc1ccc(-c2ccc(C3CCC(c4c(F)cccc4F)=N3)cc2)nn1` (centres unmarked) [drawing 282]: the pest or weed control at 1000 ppm in series [5] stood at 100%.
On to `Fc1cccc(F)c1C1=NC(c2ccc(-c3ccc(Cl)cn3)cc2)CC1` (centres unmarked) [drawing 294], for which, in series [2], the “Kill rate in % after 7 d” value was found to be 98%.
Regarding `O=C1CCCN1c1ccc(-c2ccc(C3CCC(c4c(F)cccc4F)=N3)cc2)nn1` (centres unmarked) [drawing 285], the pest or weed control at 500 ppm in series [5] stood at 100%.
On to `CCCCCCN(CCCCCC)c1ccc(-c2ccc(C3CCC(c4c(F)cccc4F)=N3)cc2)nn1` (centres unmarked), for which the pest or weed control at 1000 ppm in series [5] was 100%.
With `CCCN(CC)c1ncc(-c2ccc(C3CCC(c4c(F)cccc4F)=N3)cc2)cn1` (centres unmarked) [drawing 268], in series [3] (setting [7]), the “Kill rate in % after 7 d” value is listed as 100%.
`CCCN(CC)c1ncc(-c2ccc(C3CCC(c4c(F)cccc4F)=N3)cc2)cn1` (centres unmarked) [drawing 274]: the “Kill rate in % after 7 d” value in series [1] came out at 100%.
Regarding `Fc1cccc(F)c1C1=NC(c2ccc(-c3ccc(Cl)nc3)cc2)CC1` (centres unmarked) [drawing 299], in series [2], the “Kill rate in % after 7 d” value is on record as 98%.
Take `Fc1cccc(F)c1C1=NC(c2ccc(-c3ccc(OCC(F)(F)F)nc3)cc2)CC1` (centres unmarked) [drawing 273]: the “Kill rate in % after 7 d” value in series [1] is 100%.
Consider `CCCCCCN(C(=O)C(C)(C)C)c1ccc(-c2ccc(C3CCC(c4c(F)cccc4F)=N3)cc2)nn1` (centres unmarked) [drawing 290], for which, in series [5], the pest or weed control at 1000 ppm came to 100%.
Consider `CC(C)Oc1ncc(-c2ccc(C3CCC(c4c(F)cccc4F)=N3)cc2)cn1` (centres unmarked) [drawing 296], for which the “Kill rate in % after 7 d” value in series [2] was 98%.
`Fc1cccc(F)c1C1=NC(c2ccc(-c3ccc(N4CCOCC4)nc3)cc2)CC1` (centres unmarked) [drawing 269]: the “Kill rate in % after 7 d” value in series [3] (setting [8]) is 100%.
Regarding `CCCCCCC(=O)N(c1ccc(-c2ccc(C3CCC(c4c(F)cccc4F)=N3)cc2)nn1)C1CCCC1` (centres unmarked) [drawing 289], in series [5], the pest or weed control at 1000 ppm came out at 100%.
On the same count and under the same terms, in the case of `Fc1cccc(F)c1C1=NC(c2ccc(-c3cnc(N4CCOCC4)nc3)cc2)CC1` (centres unmarked) [drawing 284] it was 100%; in that of `CC(C)COc1ncc(-c2ccc(C3CCC(c4c(F)cccc4F)=N3)cc2)cn1` (centres unmarked) [drawing 291], 100%.
In the case of `CC(C)Sc1ncc(-c2ccc(C3CCC(c4c(F)cccc4F)=N3)cc2)cn1` (centres unmarked) [drawing 272], the “Kill rate in % after 7 d” value in series [1] is reported as 100%.
In the case of `CCCN(CC)c1ncc(-c2ccc(C3CCC(c4c(F)cccc4F)=N3)cc2)cn1` (centres unmarked) [drawing 278], the “Kill rate in % after 7 d” value in series [4] is on record as 100%.
For the molecule `CC1CC(C)CN(c2ncc(-c3ccc(C4CCC(c5c(F)cccc5F)=N4)cc3)cn2)C1` (centres unmarked) [drawing 292], in series [5], the pest or weed control at 1000 ppm worked out at 100%.
Take `CC(C)Oc1ncc(-c2ccc(C3CCC(c4c(F)cccc4F)=N3)cc2)cn1` (centres unmarked) [drawing 270]: the “Kill rate in % after 7 d” value in series [1] stood at 100%.
Turning to `Fc1cccc(F)c1C1=NC(c2ccc(-c3ccc(OCC(F)(F)F)nn3)cc2)CC1` (centres unmarked) [drawing 264], in series [3] (setting [7]), the “Kill rate in % after 7 d” value was determined as 100%.
In the case of `CN(c1ccc(-c2ccc(C3CCC(c4c(F)cccc4F)=N3)cc2)nn1)S(=O)(=O)C(F)(F)F` (centres unmarked) [drawing 286], in series [5], the pest or weed control at 500 ppm was found to be 100%.
For `CC(C)Sc1ccc(-c2ccc(C3CCC(c4c(F)cccc4F)=N3)cc2)nn1` (centres unmarked) [drawing 283], the pest or weed control at 1000 ppm in series [5] is 100%.
Regarding `CN(C)c1ncc(-c2ccc(C3CCC(c4c(F)cccc4F)=N3)cc2)cn1` (centres unmarked) [drawing 281], in series [5], the pest or weed control at 1000 ppm was found to be 100%.
Molecule `CCC(CC)N1CCN(c2ncc(-c3ccc(C4CCC(c5c(F)cccc5F)=N4)cc3)cn2)CC1` (centres unmarked) [Example 135] gave a chromatographic logP in series [6] of 2.13.
Same read-out and setting: as for `CC(C)Sc1ncc(Br)cn1` [III-8, 5-bromo-2-pyrimidinyl isopropyl sulphide], the figure is 3.34; as for `Fc1cccc(F)c1C1=N[C@@H](c2ccc(-c3ccc(C(F)(F)F)cn3)cc2)CC1` [Example 94], 3.28.
As to `CN(C)c1ncc(-c2ccc(C3CCC(c4c(F)cccc4F)=N3)cc2)cn1` (centres unmarked) [drawing 295], the “Kill rate in % after 7 d” value in series [2] is 98%.
`N#Cc1ccc(N2CCN(c3ccc(-c4ccc(C5CCC(c6c(F)cccc6F)=N5)cc4)cn3)CC2)cc1` (centres unmarked) [Example 129] yielded a chromatographic logP in series [6] of 2.29.
On the same count and under the same terms, as for `CC1CC(C)CN(c2ncc(-c3ccc(C4CCC(c5c(F)cccc5F)=N4)cc3)cn2)C1` (centres unmarked) [Example 34], the figure is 4.39; as for `CCCc1cnc(-c2ccc(C3CCC(c4c(F)cccc4F)=N3)cc2)nc1` (centres unmarked) [Example 169], 2.96.
Same read-out and setting: as for `COC(CN(C)c1ncc(-c2ccc(C3CCC(c4c(F)cccc4F)=N3)cc2)cn1)OC` (centres unmarked) [Example 206], the figure is 2.32.
Regarding `Fc1cccc(F)c1C1=NC(c2ccc(-c3cnc(N4CCCCC4)nc3)cc2)CC1` (centres unmarked) [drawing 276], the “Kill rate in % after 7 d” value in series [1] was 100%.
With `CCCCN(CC)c1ccc(-c2ccc(C3CCC(c4c(F)cccc4F)=N3)cc2)nn1` (centres unmarked) [Example 77], the chromatographic logP in series [6] is 1.82.
Still for that read-out and setting: in the case of `COCCCN1CCN(c2ncc(-c3ccc(C4CCC(c5c(F)cccc5F)=N4)cc3)cn2)CC1` (centres unmarked) [Example 126] it was 1.38; in that of `CCCN(C(=O)C(C)(C)C)c1ccc(-c2ccc(C3CCC(c4c(F)cccc4F)=N3)cc2)nn1` (centres unmarked) [Example 62], 2.95; in that of `CN(Cc1ccco1)c1ncc(-c2ccc(C3CCC(c4c(F)cccc4F)=N3)cc2)cn1` (centres unmarked) [Example 182], 3.1.
Still for that read-out and setting: in the case of `CCCN(CC)c1ncc(-c2ccc([C@H]3CCC(c4c(F)cccc4F)=N3)cc2)cn1` [Example 163] it was 3.58; in that of `Cc1ccc(N2CCN(c3ncc(-c4ccc(C5CCC(c6c(F)cccc6F)=N5)cc4)cn3)CC2)cc1C` (centres unmarked) [Example 116], 3.88; in that of `CCN(CC)c1ncc(-c2ccc(C3CCC(c4c(F)cccc4F)=N3)cc2)cn1` (centres unmarked) [Example 43], 3.
Consider `CC(C)S(=O)(=O)c1ccc(-c2ccc(C3CCC(c4c(F)cccc4F)=N3)cc2)nn1` (centres unmarked) [Example 82], for which, in series [6], the chromatographic logP was 1.4.
Consider `CN1CCN(c2ncc(-c3ccc(C4CCC(c5c(F)cccc5F)=N4)cc3)cn2)CC1` (centres unmarked) [Example 147], for which the chromatographic logP in series [6] was found to be 1.48.
Still for that read-out and setting: in the case of `Brc1ccc(N2CCOCC2)nc1` [III-1, 4-(5-bromo-2-pyridinyl)morpholine] it was 1.63.
Still for that read-out and setting: as for `Fc1cccc(F)c1C1=NC(c2ccc(-c3cnc(OC4CCCC4)nc3)cc2)CC1` (centres unmarked) [Example 199], the figure is 3.21.

In general, chromatographic logP refers to a lipophilicity value derived from retention on a column.
